Assay results as given in patent publication US20190134000A1, “COMPOUNDS TO PROMOTE NORMAL PROCESSING OF APP” (Buck Institute for Research on Aging, priority 2016, published 2019).
Entries after “also recorded” stand apart in the source; their conditions may differ.

Assays:
S9 stability, dog = type: in vitro ADME
[1] = system: sAPPα, Aβ1-42 in CHO-7W cells; assay: Secondary screen, sAPPα and Aβ in CHO-7W cells; type: cell-based
Source text: (§1) Compound C41 was initially identified by screening a library of compounds in a series of steps. First compounds were screened in a primary screen to determine the effect on sAPPα in SH-SYSY cells (see, e.g., FIG. 4). Compounds that elicited an increase in sAPPα of at least 10% were subjected to a secondary screen in CHO-7W cells for their effect on sAPPα and Aβ (see, e.g., FIG. 5).

CYP2D6 = CYP2D6 (Homo sapiens, UniProt P10635); assay: CYP inhibition screen CYP2D6; type: in vitro ADME
sAPPα in SH-SY5Y cells = assay: Primary screen, effect on sAPPα in SH-SY5Y cells (AlphaLISA); type: cell-based, human; details: ↑ increase
Source text: as §1

in vivo = details: rat
Protocol: Top panel: Levels after oral delivery at 10 mk at 1, 8, and 24 hours; levels after oral delivery at 40 mk at 24 hours only. Bottom panel: IV delivery at 2.5 mk. Note brain levels in ng/g, plasma levels in ng/ml.
FIG. 13 illustrates C41 pharmacokinetic parameters in rat.
C41 pharmacokinetics were determined in a rat (see, FIG. 12, Table 9). […] Brain tissue was collected at 1, 8, and 24 hours. Plasma peak was 150 ng/ml and brain was 3251 ng/g. C41 peaked at 8 hours. […] Brain tissue was collected at 30 min, 6 hours, and 24 hours. Plasma peak was 564 ng/ml, at 1 minute and brain peak was 629 ng/g at 30 minutes. The 30 minute brain:plasma ratio was 8. Oral availability was determined to be about 100% (see, e.g. FIG. 13).

[2] = system: muscarinic acetylcholine receptors; assay: Muscarinic receptor binding in panel; details: panel binding test
CYP3A4 = CYP3A4 (Homo sapiens, UniProt P08684); assay: CYP inhibition screen CYP3A4; type: in vitro ADME; details: for inhibition at 10 µM / inhibition at 30 µM: human
in vitro = assay: in vitro
Protocol: The second batch of C41 was tested for plasma protein binding, ADME-tox screening (microsomal intrinsic clearance), and ADME-tox screening (CYP inhibition screen). PK in rats was determined to determine a dose of non-GLP Pharm-Tox screening. Additionally, acute toxicity in rats (pre-subchronic toxicity) and non-GLP subchronic toxicity was determined.

CYP2C19 = CYP2C19 (Homo sapiens, UniProt P33261); assay: CYP inhibition screen CYP2C19; type: in vitro ADME
CYP1A2 = target: T1, CYP1A2 (Homo sapiens, UniProt P05177); assay: CYP inhibition screen CYP1A2; type: in vitro ADME
T1 sequence (P05177 1-516): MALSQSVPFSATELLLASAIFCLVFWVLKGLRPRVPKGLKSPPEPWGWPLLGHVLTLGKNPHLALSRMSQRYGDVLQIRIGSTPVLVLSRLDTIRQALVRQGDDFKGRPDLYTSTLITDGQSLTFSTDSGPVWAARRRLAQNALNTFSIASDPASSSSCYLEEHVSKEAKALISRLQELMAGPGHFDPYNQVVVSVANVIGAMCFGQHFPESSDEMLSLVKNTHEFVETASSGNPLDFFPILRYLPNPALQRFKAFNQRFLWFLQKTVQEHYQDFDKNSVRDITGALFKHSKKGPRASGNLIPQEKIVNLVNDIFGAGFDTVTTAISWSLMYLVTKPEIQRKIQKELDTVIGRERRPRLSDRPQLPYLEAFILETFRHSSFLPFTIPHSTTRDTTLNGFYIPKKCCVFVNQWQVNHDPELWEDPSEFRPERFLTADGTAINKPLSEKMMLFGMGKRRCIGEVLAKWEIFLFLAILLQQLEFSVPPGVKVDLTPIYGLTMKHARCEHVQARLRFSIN

hERG receptor = hERG receptor (Homo sapiens, UniProt Q12809); type: binding
AD mouse model = assay: Synaptic load, synaptophysin labeling of hippocampus; type: in vivo
Protocol: FIG. 16 illustrates mechanistic confirmation studies for determination of synaptic load.
Mechanistic confirmation studies for determination of synaptic load were performed using antibody-labeling of synaptophysin with a green fluorescent tag. […] The improvements in NLR and NOR may be correlated to the restoration of synaptic load, increases in sAPPα or the sAPPα/sAPPβ ratio; increases in the sAPPα/Aβ1-42 ratio; decreases in the p-tau/tau ratio, and/or decreases in APPneo (c-terminal cleavage).

[3] = Panel binding test (Cerep broad screening panel)

CYP3A4, sequence (P08684 whole entry): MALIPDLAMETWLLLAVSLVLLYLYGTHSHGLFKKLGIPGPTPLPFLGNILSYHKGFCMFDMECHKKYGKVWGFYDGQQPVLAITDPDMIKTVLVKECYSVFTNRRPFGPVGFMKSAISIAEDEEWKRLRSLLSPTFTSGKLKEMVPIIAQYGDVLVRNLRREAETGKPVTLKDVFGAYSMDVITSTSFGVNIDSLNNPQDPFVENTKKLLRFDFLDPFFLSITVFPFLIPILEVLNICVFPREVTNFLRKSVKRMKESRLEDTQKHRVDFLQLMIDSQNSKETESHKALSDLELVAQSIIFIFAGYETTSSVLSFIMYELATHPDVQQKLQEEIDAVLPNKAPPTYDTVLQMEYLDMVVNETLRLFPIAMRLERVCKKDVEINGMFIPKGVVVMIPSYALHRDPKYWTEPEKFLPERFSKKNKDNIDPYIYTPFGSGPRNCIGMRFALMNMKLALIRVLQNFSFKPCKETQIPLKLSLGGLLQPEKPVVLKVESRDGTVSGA
CYP2D6, sequence (P10635 whole entry): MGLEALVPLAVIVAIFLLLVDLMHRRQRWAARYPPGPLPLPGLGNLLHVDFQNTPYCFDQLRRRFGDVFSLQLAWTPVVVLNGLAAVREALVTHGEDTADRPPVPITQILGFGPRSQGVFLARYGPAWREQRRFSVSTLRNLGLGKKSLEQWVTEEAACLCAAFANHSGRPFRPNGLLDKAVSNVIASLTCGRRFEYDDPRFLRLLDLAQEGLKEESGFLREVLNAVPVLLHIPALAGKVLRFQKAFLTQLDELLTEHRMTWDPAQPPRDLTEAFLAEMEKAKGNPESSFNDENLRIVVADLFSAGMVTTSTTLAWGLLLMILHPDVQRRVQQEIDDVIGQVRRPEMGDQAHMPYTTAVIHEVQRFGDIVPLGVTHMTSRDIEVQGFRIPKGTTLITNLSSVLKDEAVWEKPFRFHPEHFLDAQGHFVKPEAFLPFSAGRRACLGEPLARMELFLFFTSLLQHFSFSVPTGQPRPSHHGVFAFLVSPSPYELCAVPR
CYP2C19, sequence (P33261 whole entry): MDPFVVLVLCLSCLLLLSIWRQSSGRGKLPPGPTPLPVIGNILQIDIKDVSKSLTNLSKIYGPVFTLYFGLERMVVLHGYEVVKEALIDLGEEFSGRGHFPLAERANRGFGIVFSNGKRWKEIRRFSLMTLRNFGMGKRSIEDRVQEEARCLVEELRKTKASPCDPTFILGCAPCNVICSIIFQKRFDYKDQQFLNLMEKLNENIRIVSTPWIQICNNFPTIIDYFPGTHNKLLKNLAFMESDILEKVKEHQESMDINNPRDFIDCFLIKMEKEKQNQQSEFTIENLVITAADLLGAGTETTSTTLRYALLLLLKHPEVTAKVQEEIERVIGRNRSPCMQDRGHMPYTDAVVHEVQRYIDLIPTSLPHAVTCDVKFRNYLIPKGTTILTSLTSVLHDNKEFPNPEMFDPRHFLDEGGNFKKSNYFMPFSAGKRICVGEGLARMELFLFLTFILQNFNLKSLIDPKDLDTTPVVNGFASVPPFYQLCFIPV
hERG receptor, sequence (Q12809 whole entry): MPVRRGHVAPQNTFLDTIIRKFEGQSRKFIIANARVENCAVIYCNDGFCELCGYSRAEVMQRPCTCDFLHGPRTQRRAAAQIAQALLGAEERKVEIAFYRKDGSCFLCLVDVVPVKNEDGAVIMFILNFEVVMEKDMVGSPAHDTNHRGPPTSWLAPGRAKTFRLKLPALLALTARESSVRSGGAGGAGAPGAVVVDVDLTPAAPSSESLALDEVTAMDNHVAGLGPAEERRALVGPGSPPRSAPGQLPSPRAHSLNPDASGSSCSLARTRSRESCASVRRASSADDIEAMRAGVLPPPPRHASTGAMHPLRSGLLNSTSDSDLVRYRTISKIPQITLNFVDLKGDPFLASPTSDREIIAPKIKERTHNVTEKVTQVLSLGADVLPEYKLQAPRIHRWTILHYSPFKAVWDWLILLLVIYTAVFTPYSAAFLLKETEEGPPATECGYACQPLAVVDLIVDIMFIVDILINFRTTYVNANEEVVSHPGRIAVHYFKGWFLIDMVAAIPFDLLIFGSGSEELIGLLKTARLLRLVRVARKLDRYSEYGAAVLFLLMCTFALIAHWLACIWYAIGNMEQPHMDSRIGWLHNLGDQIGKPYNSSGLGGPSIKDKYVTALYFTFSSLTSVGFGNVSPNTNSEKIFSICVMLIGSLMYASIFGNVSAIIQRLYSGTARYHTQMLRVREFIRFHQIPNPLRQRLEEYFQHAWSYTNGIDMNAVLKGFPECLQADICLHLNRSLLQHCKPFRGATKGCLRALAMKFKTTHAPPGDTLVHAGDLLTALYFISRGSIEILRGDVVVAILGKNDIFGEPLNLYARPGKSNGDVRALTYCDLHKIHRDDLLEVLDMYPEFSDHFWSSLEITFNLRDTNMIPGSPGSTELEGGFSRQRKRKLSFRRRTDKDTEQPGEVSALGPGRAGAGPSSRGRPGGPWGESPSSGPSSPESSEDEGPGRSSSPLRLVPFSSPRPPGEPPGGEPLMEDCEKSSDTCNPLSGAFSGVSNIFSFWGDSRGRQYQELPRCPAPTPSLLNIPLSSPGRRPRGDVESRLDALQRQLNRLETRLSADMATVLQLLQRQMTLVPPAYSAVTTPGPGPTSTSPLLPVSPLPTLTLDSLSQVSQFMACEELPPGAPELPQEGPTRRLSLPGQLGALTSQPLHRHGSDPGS

Q: Which results are given for CN1[C@@H]2CC[C@H]1C[C@@H](OC(=O)c1c[nH]c3cc(F)ccc13)C2 [Compound C41, (1R,3R,5S)-8-methyl-8-azabicyclo[3.2.1]octan-3-yl 6-fluoro-1H-indole-3-carboxylate]?
A: half-life (S9 stability, dog): 0.668 h; Secondary Screen (CHO-7W) sAPPα ([1]; ↑ increase): ↑>20%; Secondary Screen (CHO-7W) sAppα/Aβ ([1]; ↑ increase of ratio): ↑>50%; Secondary Screen (CHO-7W) Aβ1-42 ([1]; ↓ decrease): ↓>20%; IC50 (CYP2D6): > 30 µM; inhibition at 10 µM (CYP2D6; human): 19.9%; inhibition at 30 µM (CYP2D6; human): 36.1%; Primary Screen (SH-SY5Y) sAPPα (sAPPα in SH-SY5Y cells): ↑~20%; Oral availability (in vivo): about 100%; bioavailability (in vivo): ~98%; AUC (0-t) (in vivo; iv): AUC (0-t) ng-min/g = 400605.0; AUC(0-t) (in vivo; iv): 330 ng·h/mL; Clearance (CL) (in vivo; iv): Clearance (CL) g/min/Kg = 0.006.; Kp at 0.5 h (in vivo; iv): 8; Volume of distribution steady state (in vivo; iv): g/Kg = 2.9.; clearance (in vivo; iv): 112 mL/min/kg; AUC (in vivo; iv, 2.5 mg/kg): 373 ng·h/mL; MRT (in vivo; iv, 2.5 mg/kg, MRT): 6.63 h; Cmax (in vivo; iv, Cmax): 629 ng/g; Cmax (in vivo; iv, Cmax plasma): 564 ng/mL; MRT (in vivo; iv, Mean residence time (MRT)): 6.64 h; MRT (in vivo; iv, Mean residence time (MRT) area): 8.33 h; AUC (0-t) (in vivo; po): AUC (0-t) ng-min/g = 793672.5; AUC(0-t) (in vivo; po): 1970 ng·h/mL; Clearance (CL) (in vivo; po): Clearance (CL) g/min/Kg = 0.087.; T1/2 elimination (in vivo; po): T1/2 elimination = 154.022 min.; clearance (in vivo; po): 84 mL/min/kg; time of peak (in vivo; po): 8 h; AUC (in vivo; po, 10 mg/kg): 1970 ng·h/mL; MRT (in vivo; po, 10 mg/kg, MRT): 21.7 h; Cmax (in vivo; po, Cmax): 3250 ng/g; Cmax (in vivo; po, Cmax plasma): 150 ng/mL; half-life (in vivo; po, T1/2 elimination): 2.41 h; Tmax (in vivo; po, Tmax): 6.33 h; Tmax (in vivo; po, Tmax oral): 8 h; binding to muscarinic acetylcholine receptors [2]: only weak binding; also recorded: profile. Some; IC50 (CYP3A4): > 30 µM; inhibition at 10 µM (CYP3A4; CYP3A4 midazolam inhibition): 3.1%; inhibition at 30 µM (CYP3A4; CYP3A4 midazolam inhibition): 3.8%; inhibition at 10 µM (CYP3A4; CYP3A4 testosterone inhibition): 5.2%; inhibition at 30 µM (CYP3A4; CYP3A4 testosterone inhibition): 2.5%; microsomal CLint at 1 μM (in vitro; dog, microsomes, NADPH-Dependent CLint): 45.7 µL/min/mg; half-life at 1 μM (in vitro; dog, microsomes, NADPH-Dependent T1/2): 0.843 h; microsomal CLint at 1 μM (in vitro; dog, microsomes, NADPH-Free CLint): < 9.6 µL/min/mg; half-life at 1 μM (in vitro; dog, microsomes, NADPH-Free T1/2): > 4 h; Plasma protein binding (in vitro; human): 74.3 (human); recovery (in vitro; human): 115%; half-life (in vitro; human, microsomes): > 4 h; half-life at 1 μM (in vitro; human, microsomes): > 4 h; microsomal CLint at 1 μM (in vitro; human, microsomes): < 9.6 µL/min/mg; NADPH-Free CLint (in vitro; human, microsomes, 1 μM): <9.6 µL/min/mg; NADPH-Free T1/2 (in vitro; human, microsomes, 1 μM): >4 h; Mean Plasma Fraction Bound (in vitro; human, plasma): 74.3%; fraction unbound (in vitro; human, plasma): 0.257; microsomal CLint at 1 μM (in vitro; rat, microsomes, NADPH-Dependent CLint): 187 µL/min/mg; half-life at 1 μM (in vitro; rat, microsomes, NADPH-Dependent T1/2): 0.207 h; microsomal CLint at 1 μM (in vitro; rat, microsomes, NADPH-Free CLint): < 9.6 µL/min/mg; half-life at 1 μM (in vitro; rat, microsomes, NADPH-Free T1/2): > 4 h; IC50 (CYP2C19): > 30 µM; inhibition at 10 µM (CYP2C19; human): 0%; inhibition at 30 µM (CYP2C19; human): 0%; IC50 (CYP1A2): > 30 µM; inhibition at 10 µM (CYP1A2; human): 0.35%; inhibition at 30 µM (CYP1A2; human): 0.33%; binding to hERG receptor (hERG receptor): no binding; synaptic load / synaptic density in hippocampus (AD mouse model): restore synaptic density; also recorded: restored synaptic load; profile in panel binding test / activity in broad screening panel [3]: clean profile; also recorded: Overall clean
